In patent US11413291B2, “Pesticidally active heterocyclic derivatives with sulfur containing substituents” (SYNGENTA PARTICIPATIONS AG, priority 2017, dated 2022):

Tests used:
Format in all cases: in vivo
[1] = system: Frankliniella occidentalis; experiment: Example B11: Frankliniella occidentalis, sprayed sunflower leaf discs; conditions: foliar, 168 h, application rate 200 ppm, mixed ages, 7 days after infestation
Experimental: Sunflower leaf discs were placed on agar in 24-well microtiter plates and sprayed with aqueous test solutions prepared from 10,000 DMSO stock solutions. After drying the leaf discs were infested with a Frankliniella population of mixed ages. The samples were assessed for mortality 7 days after infestation.

Spodoptera littoralis [2] = experiment: Example B2: Spodoptera littoralis, systemic uptake via lettuce roots from agar; conditions: 144 h, test rate 12.5 ppm, 6 days after infestation, read-out: effect in at least one of the three categories (mortality, anti-feeding, or growth inhibition)
Description: Test compounds were applied by pipette from 10′000 ppm DMSO stock solutions into 24-well plates and mixed with agar. Lettuce seeds were placed onto the agar and the multi well plate was closed by another plate which contained also agar. After 7 days the compound was absorbed by the roots and the lettuce grew into the lid plate. The lettuce leaves were then cut off into the lid plate. Spodoptera eggs were pipetted through a plastic stencil onto a humid gel blotting paper and the lid plate was closed with it. The samples were assessed for mortality, anti-feedant effect and growth inhibition in comparison to untreated samples 6 days after infestation.

Euschistus heros = experiment: Example B8: Euschistus heros, sprayed soybean leaves; conditions: Euschistus heros, 120 h; application rate 200 ppm; N2 nymphs; 5 days after infestation; read-out: effect in at least one of the two categories (mortality or growth inhibition)
Experimental: Soybean leaves on agar in 24-well microtiter plates were sprayed with aqueous test solutions prepared from 10,000 ppm DMSO stock solutions. After drying the leaves were infested with N2 nymphs. The samples were assessed for mortality and growth inhibition in comparison to untreated samples 5 days after infestation.

Myzus persicae [3] = experiment: Example B5: Myzus persicae feeding/contact, sprayed sunflower leaf discs; conditions: Myzus persicae, foliar, 144 h; application rate 200 ppm; mixed ages; 6 days after infestation
Experimental: Sunflower leaf discs were placed onto agar in a 24-well microtiter plate and sprayed with aqueous test solutions prepared from 10,000 ppm DMSO stock solutions. After drying, the leaf discs were infested with an aphid population of mixed ages. The samples were assessed for mortality 6 days after infestation.

Myzus persicae [4] = experiment: Example B6: Myzus persicae systemic, pea seedling roots in test solution; conditions: Myzus persicae, 144 h; test rate 24 ppm; mixed ages; 6 days
Experimental: Roots of pea seedlings infested with an aphid population of mixed ages were placed directly into aqueous test solutions prepared from 10,000 DMSO stock solutions. The samples were assessed for mortality 6 days after placing seedlings into test solutions.

Plutella xylostella = experiment: Example B3: Plutella xylostella, artificial diet; conditions: 120 h, application rate 200 ppm, L2 larvae, 5 days after infestation, read-out: effect in at least one of the two categories (mortality or growth inhibition)
Experimental: 24-well microtiter plates with artificial diet were treated with aqueous test solutions prepared from 10,000 ppm DMSO stock solutions by pipetting. After drying, the plates were infested with L2 larvae (10 to 15 per well). The samples were assessed for mortality and growth inhibition in comparison to untreated samples 5 days after infestation.

Diabrotica balteata = experiment: Example B4: Diabrotica balteata, sprayed maize sprouts; conditions: 96 h, application rate 200 ppm, L2 larvae, 4 days after infestation, read-out: effect in at least one of the two categories (mortality or growth inhibition)
Experimental: Maize sprouts placed onto an agar layer in 24-well microtiter plates were treated with aqueous test solutions prepared from 10,000 ppm DMSO stock solutions by spraying. After drying, the plates were infested with L2 larvae (6 to 10 per well). The samples were assessed for mortality and growth inhibition in comparison to untreated samples 4 days after infestation.

Tetranychus urticae = experiment: Example B10: Tetranychus urticae, sprayed bean leaf discs; conditions: foliar, 192 h, application rate 200 ppm, mixed population (mobile stages), 8 days after infestation
Experimental: Bean leaf discs on agar in 24-well microtiter plates were sprayed with aqueous test solutions prepared from 10,000 ppm DMSO stock solutions. After drying the leaf discs were infested with a mite population of mixed ages. The samples were assessed for mortality on mixed population (mobile stages) 8 days after infestation.

Spodoptera littoralis [5] = experiment: Example B1: Spodoptera littoralis, sprayed cotton leaf discs; conditions: foliar, 72 h, application rate 200 ppm, L1 larvae, 3 days after infestation
Experimental: Cotton leaf discs were placed onto agar in 24-well microtiter plates and sprayed with aqueous test solutions prepared from 10′000 ppm DMSO stock solutions. After drying the leaf discs were infested with five L1 larvae. The samples were assessed for mortality, anti-feeding effect, and growth inhibition in comparison to untreated samples 3 days after infestation. Control of Spodoptera littoralis by a test sample is given when at least one of the categories mortality, anti-feedant effect, and growth inhibition is higher than the untreated sample.

Bemisia tabaci = experiment: Example B7: Bemisia tabaci, sprayed cotton leaf discs; conditions: foliar, 144 h, application rate 200 ppm, adult white flies, 6 days after incubation
Experimental: Cotton leaf discs were placed on agar in 24-well microtiter plates and sprayed with aqueous test solutions prepared from 10,000 ppm DMSO stock solutions. After drying the leaf discs were infested with adult white flies. The samples were checked for mortality 6 days after incubation.

CCn1c(C(F)(F)F)cc2nc(-c3ncc(C(C)(C)C#N)cc3S(=O)(=O)CC)n(C)c2c1=O [Compound P3, 2-[6-[5-ethyl-3-methyl-4-oxo-6-(trifluoromethyl)imidazo[4,5-c]pyridin-2-yl]-5-ethylsulfonyl-3-pyridyl]-2-methyl-propanenitrile]
≥ 80%: mortality at 200 ppm [1] | percent effect (mortality, anti-feeding or growth inhibition) at 12.5 ppm (Spodoptera littoralis [2]) | percent effect (mortality or growth inhibition) at 200 ppm (Euschistus heros) | mortality at 200 ppm (Myzus persicae [3]) | mortality at 24 ppm (Myzus persicae [4]) | percent effect (mortality or growth inhibition) at 200 ppm (Plutella xylostella) | percent effect (mortality or growth inhibition) at 200 ppm (Diabrotica balteata) | mortality at 200 ppm (Tetranychus urticae) | percent control (mortality, anti-feedant effect or growth inhibition) at 200 ppm (Spodoptera littoralis [5]) | mortality at 200 ppm (Bemisia tabaci)

CCS(=O)(=O)c1cc(C(C)(C)C#N)cnc1-c1cn2ccc(C(F)(F)C(F)(F)F)cc2n1 [Compound P6, 2-[5-ethylsulfonyl-6-[7-(1,1,2,2,2-pentafluoroethyl)imidazo[1,2-a]pyridin-2-yl]-3-pyridyl]-2-methyl-propanenitrile]
≥ 80%: mortality at 200 ppm [1] | mortality at 200 ppm (Myzus persicae [3]) | percent effect (mortality or growth inhibition) at 200 ppm (Plutella xylostella) | percent effect (mortality or growth inhibition) at 200 ppm (Diabrotica balteata) | mortality at 200 ppm (Tetranychus urticae) | percent control (mortality, anti-feedant effect or growth inhibition) at 200 ppm (Spodoptera littoralis [5]) | mortality at 200 ppm (Bemisia tabaci)

CCS(=O)(=O)c1cc(C(C)(C)C#N)cnc1-c1cn2ccc(SC(F)(F)F)cc2n1 [Compound P7, 2-[5-ethylsulfonyl-6-[7-(trifluoromethylsulfanyl)imidazo[1,2-a]pyridin-2-yl]-3-pyridyl]-2-methyl-propanenitrile]
≥ 80%: mortality at 200 ppm [1] | mortality at 200 ppm (Myzus persicae [3]) | percent effect (mortality or growth inhibition) at 200 ppm (Plutella xylostella) | percent effect (mortality or growth inhibition) at 200 ppm (Diabrotica balteata) | percent control (mortality, anti-feedant effect or growth inhibition) at 200 ppm (Spodoptera littoralis [5]) | mortality at 200 ppm (Bemisia tabaci)

CCS(=O)(=O)c1cc(C(C)(C)C#N)cnc1-c1nc2cc(C(F)(F)F)n(CC(F)(F)F)c(=O)c2n1C [Compound P11, 2-[5-ethylsulfonyl-6-[3-methyl-4-oxo-5-(2,2,2-trifluoroethyl)-6-(trifluoromethyl)imidazo[4,5-c]pyridin-2-yl]-3-pyridyl]-2-methyl-propanenitrile]
≥ 80%: mortality at 200 ppm [1] | mortality at 200 ppm (Myzus persicae [3]) | percent effect (mortality or growth inhibition) at 200 ppm (Plutella xylostella) | percent effect (mortality or growth inhibition) at 200 ppm (Diabrotica balteata) | percent control (mortality, anti-feedant effect or growth inhibition) at 200 ppm (Spodoptera littoralis [5]) | mortality at 200 ppm (Bemisia tabaci)

CCS(=O)(=O)c1cc(C(C)(C)C#N)ccc1-c1nc2cc(C(F)(F)F)n(C3CC3)c(=O)c2n1C [Compound P12, 2-[4-[5-cyclopropyl-3-methyl-4-oxo-6-(trifluoromethyl)imidazo[4,5-c]pyridin-2-yl]-3-ethylsulfonyl-phenyl]-2-methyl-propanenitrile]
≥ 80%: mortality at 200 ppm [1] | mortality at 200 ppm (Myzus persicae [3]) | percent effect (mortality or growth inhibition) at 200 ppm (Plutella xylostella) | percent effect (mortality or growth inhibition) at 200 ppm (Diabrotica balteata) | mortality at 200 ppm (Tetranychus urticae) | percent control (mortality, anti-feedant effect or growth inhibition) at 200 ppm (Spodoptera littoralis [5]) | mortality at 200 ppm (Bemisia tabaci)

CCS(=O)(=O)c1cc(C(C)(C)C#N)cnc1-c1nc2cc(C(F)(F)F)n(C3CC3)c(=O)c2n1C [Compound P17, 2-[6-[5-cyclopropyl-3-methyl-4-oxo-6-(trifluoromethyl)imidazo[4,5-c]pyridin-2-yl]-5-ethylsulfonyl-3-pyridyl]-2-methyl-propanenitrile]
≥ 80%: mortality at 200 ppm [1] | mortality at 200 ppm (Myzus persicae [3]) | mortality at 24 ppm (Myzus persicae [4]) | percent effect (mortality or growth inhibition) at 200 ppm (Plutella xylostella) | percent effect (mortality or growth inhibition) at 200 ppm (Diabrotica balteata) | mortality at 200 ppm (Tetranychus urticae) | percent control (mortality, anti-feedant effect or growth inhibition) at 200 ppm (Spodoptera littoralis [5]) | mortality at 200 ppm (Bemisia tabaci)
